The text below walks through data of ChEMBL document CHEMBL1201862, “PubChem BioAssay data set” (2004).

Structures are written as SMILES. Activity calls are given as the source filed them. Cut-off read from the data, not from the text of the source, for most assays here: actives have a measured EC50 and inactives only a lower limit. Where only a bound is given, the exact number is not on record here.

Assay [1] relates to Streptococcus sp. 'group A'. The assay is described as follows: growth inhibition of control SK(-) GAS strain, dose response, counter-screen for streptokinase expression inhibitor project, luminescence, kanamycin, BacTiterGlo, confirmation (AID 1900). The assay is classed as functional, organism-based.
Assay [2] concerns the target Paired box protein Pax-8 (Homo sapiens, UniProt Q06710). The assay is described as follows: inhibitors of PAX8-driven TPO luciferase reporter, dose response, RMG-I cells, cherry-pick (AID 687027).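 Note: luciferase reporter driven by Pax8 target thyroperoxidase promoter measured by SteadyGlo luminescence.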 The assay is classed as functional, cell-based.
Assay [3] deals with Streptococcus. The assay is described as follows: Group A Streptococcus viability loss, dose response, counter-screen for streptokinase expression inhibitor project, luminescence, BacTiterGlo (AID 1915).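 Note: potency for reduction of bacterial viability or growth.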 Type of assay: functional, organism-based.
The target of assay [4] is T1, Streptokinase A (Streptococcus pyogenes serotype M1, UniProt P10520).
T1 sequence (P10520 whole entry): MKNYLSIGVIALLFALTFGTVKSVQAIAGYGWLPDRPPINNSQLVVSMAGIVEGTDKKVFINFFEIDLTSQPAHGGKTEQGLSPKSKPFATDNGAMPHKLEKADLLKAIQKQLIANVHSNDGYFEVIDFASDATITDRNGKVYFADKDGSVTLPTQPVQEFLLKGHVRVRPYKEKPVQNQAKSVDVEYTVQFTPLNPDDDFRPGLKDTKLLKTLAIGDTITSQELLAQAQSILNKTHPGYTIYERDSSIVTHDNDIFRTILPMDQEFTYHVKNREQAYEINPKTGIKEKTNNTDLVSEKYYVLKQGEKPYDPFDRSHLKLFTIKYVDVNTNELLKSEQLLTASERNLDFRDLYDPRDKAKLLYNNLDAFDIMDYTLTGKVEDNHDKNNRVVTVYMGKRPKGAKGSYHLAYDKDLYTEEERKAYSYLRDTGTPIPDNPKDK
Put plainly: S. pyogenes streptokinase expression inhibitors, potency, dose response, plasminogen activation absorbance, OD405 (AID 1914).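 Note: secreted streptokinase activity via plasminogen activation per viability signal from cell pellet.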 The assay is classed as functional, Streptococcus pyogenes M1 GAS.

Assay [5] in a line: Luminescence Cell-Based Dose Response HTS to Identify Inhibitors of 5'UTR Stem-Loop Driven Prion Protein mRNA Translation in H4 Neuroglioblastoma Cells. [Related pubchem assays: 1827 (Project Summary), 1813 (Primary HTS)]. The assay is classed as functional.
Assay [6] in a line: inhibitors of firefly luciferase expression or activity, dose response, H4 neuroglioma cells, luminescence (AID 1990). The assay is classed as functional, cell-based.
A short description of assay [7]: inhibitors of SNCA 5'UTR-driven reporter translation, confirmation, H4 neuroglioma cells, luminescence (AID 1988). Type of assay: functional, cell-based.
A short description of assay [8]: NIH-3T3 fibroblast cytotoxicity, dose response, cytotoxicity control, cell-based, fluorescence, Alamar Blue, secondary assay (AID 2327).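 Note: NIH-3T3 mouse fibroblasts cultured with fluconazole at 8 µg/mL.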 Type of assay: functional.
Assay [9] in a line: C. albicans growth with fluconazole, confirmation, fluorescence, retest (AID 2467). The assay is classed as functional, cell-based.
In assay [10] the target is Cytochrome P450 3A4 (Homo sapiens, UniProt P08684).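 Note: CYP3A4 tested as one member of a cytochrome P450 panel screen.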
Assay [11] has as its system H4. Put plainly: Luminescence Cell-Based Dose Response HTS to Identify Activators of 5'UTR Stem-Loop Driven Prion Protein mRNA Translation in H4 Neuroglioblastoma Cells. [Related pubchem assays: 1829 (Project Summary), 1814 (Primary HTS)]. Type of assay: functional. To be noted: Homo sapiens.
Assay [12] in a line: Luminescence Cell-Based Dose Confirmation HTS to Identify Activators of 5'UTR Stem-Loop Driven Alpha-Synuclein mRNA Translation in H4 Neuroglioblastoma Cells. [Related pubchem assays: 1829 (Project Summary), 1814 (Primary HTS)]. Type of assay: functional.
Assay [13] is described as follows: Luminescence Cell-Based Dose Response HTS to Identify Activators of Luciferase Translation or Activity in H4 […] Cells. [Related pubchem assays: 1829 (Project Summary), 1814 (Primary HTS)]. Type of assay: functional.

Sequence of Cytochrome P450 3A4 (P08684 whole entry): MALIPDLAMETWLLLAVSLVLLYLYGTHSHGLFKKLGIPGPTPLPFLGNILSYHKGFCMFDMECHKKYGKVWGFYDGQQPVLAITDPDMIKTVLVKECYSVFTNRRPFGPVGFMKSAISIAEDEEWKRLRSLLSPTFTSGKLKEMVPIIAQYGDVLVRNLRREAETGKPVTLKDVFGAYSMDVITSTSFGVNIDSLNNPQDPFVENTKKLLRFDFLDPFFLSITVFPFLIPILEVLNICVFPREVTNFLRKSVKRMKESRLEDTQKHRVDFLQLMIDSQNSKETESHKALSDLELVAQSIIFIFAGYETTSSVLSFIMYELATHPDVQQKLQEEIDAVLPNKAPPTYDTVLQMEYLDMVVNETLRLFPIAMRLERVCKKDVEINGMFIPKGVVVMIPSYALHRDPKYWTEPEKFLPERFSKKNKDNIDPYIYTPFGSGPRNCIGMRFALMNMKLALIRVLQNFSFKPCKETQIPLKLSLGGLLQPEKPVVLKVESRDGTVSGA
Sequence of Paired box protein Pax-8 (Q06710 whole entry): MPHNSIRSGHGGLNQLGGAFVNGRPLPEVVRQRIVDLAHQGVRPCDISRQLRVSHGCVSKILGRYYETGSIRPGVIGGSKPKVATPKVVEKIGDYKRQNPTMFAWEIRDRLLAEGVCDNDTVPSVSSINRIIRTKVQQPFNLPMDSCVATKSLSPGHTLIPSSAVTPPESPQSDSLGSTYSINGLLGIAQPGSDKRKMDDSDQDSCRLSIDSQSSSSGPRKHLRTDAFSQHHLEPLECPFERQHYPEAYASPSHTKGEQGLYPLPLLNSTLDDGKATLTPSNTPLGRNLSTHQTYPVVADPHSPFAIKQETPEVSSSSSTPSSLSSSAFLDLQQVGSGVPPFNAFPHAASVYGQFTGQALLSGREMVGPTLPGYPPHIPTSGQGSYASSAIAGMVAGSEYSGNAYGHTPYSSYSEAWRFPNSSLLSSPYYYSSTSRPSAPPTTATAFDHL

`CC(/C=C1\SC(=O)N(CC(=O)Nc2ccc(O)cc2)C1=O)=C\c1ccccc1`: the EC50 was 13.8 µM (active) in [1], 31.1 µM (active) in [3] and > 150 µM (not active) in assay [4]. In [2], the AC50 is 64.3 µM (active).

`Nc1n[nH]c(SCc2cccc(Br)c2)n1`: the EC50 in assay [5], in assay [6] and in assay [7] was > 120 µM (not active) throughout.

Consider `COc1ccc(C(=O)Nc2ccc(-c3cn4ccsc4n3)cc2)cc1S(=O)(=O)N1CCOCC1`, for which the EC50 was > 120 µM (not active) in assay [5], > 120 µM (not active) in assay [6] and 60.6 µM (active) in assay [7].

On to `COc1ccc(C(=O)C2CCCN(Cc3cccn3-c3ccccn3)C2)c(C)c1` (stereo not given), for which the EC50 is > 160 µM (inactive) in assay [8] and 0.706 µM (active) in assay [9].

Regarding `Clc1ccccc1CNc1nc2ccccc2n2cnnc12`, the EC50 in [5] is > 120 µM (not active); in assay [6] it was 14.2 µM (active); in assay [7], 35.8 µM (active).

For the compound `COc1ccc(/C=C/C(=O)NC(=S)NNC(=O)Cc2cccs2)cc1`, the EC50 in assay [1] was 2.45 µM (active); in assay [3], 20.9 µM (active); in assay [4] it was > 150 µM (not active).

Consider `CN(C(=O)CC(NC(=O)c1ccccc1)(c1ccccc1)c1ccccc1)c1ccccc1`, for which the EC50 in [8] is 30.5 µM (active); in assay [9], 4.72 µM (active). Besides, the AC50 in [10] was 0.708 µM (inconclusive).

For the compound `COc1ccc(/C=C/C(=O)NC(=S)N2CCN(c3ccccc3OC)CC2)cc1`, the EC50 was > 150 µM (not active) in [1]; 7.91 µM (active) in assay [11]; 1.67 µM (active) in [12]; > 120 µM (not active) in assay [13]; > 150 µM (not active) in assay [3]; > 150 µM (not active) in assay [4].

Turning to `N#Cc1cc2cc3c(cc2nc1SCC(=O)N1CCOCC1)OCCO3`, the EC50 in assay [5] was > 120 µM (not active); in assay [7], 5.54 µM (active).

As to `NNC(=O)c1ccc(OCC2CC(c3ccc(Cl)cc3)=NO2)cc1` (stereo not given), the EC50 in assay [1], in [3] and in assay [4] was > 150 µM (not active) throughout.

With `CCOC(=O)c1cccnc1SCC(=O)NC(C)CC` (stereo not given), the EC50 in assay [1], in assay [3] and in [4] was > 150 µM (not active) throughout.
